Reference: patent US12577325B2, “Bispecific antibody-camptothecin drug conjugate and pharmaceutical use thereof” (SYSTIMMUNE, INC., priority 2021, dated 2026)

How the values were obtained:
[1] = system: human poorly differentiated lung cancer squamous cell carcinoma cell line Oka-c-1; assay: In vitro efficacy (Alamar Blue or MTS, 5 days) in Oka-c-1; type: cell-based; details: 120 h, Oka-c-1, 5 days
Description: (§1) The in vitro efficacy of ADC-coupled drugs was evaluated using an experimental model of two human tumor cell lines (human poorly differentiated lung cancer squamous cell carcinoma cell line Oka-c-1, human lung squamous cell carcinoma cells SK-MES-1).
(§2) Inoculate a certain number of tumor cells in a 96-well plate, add the gradient-diluted test antibody and the corresponding ADC drug to the cells, treat for 5 days, measure the cell viability using Alamar Blue or MTS, and evaluate the inhibitory effect of the test antibody, the ADC and the small molecule drug d3 on the tumor cell lines by calculating the IC50. The starting concentration of the antibody drug was 500 nM, and the dilution was 7-fold, totaling 7 concentration points, and the treatment was carried out for 5 days.

[2] = system: human lung squamous cell carcinoma cells SK-MES-1; assay: In vitro efficacy (Alamar Blue or MTS, 5 days) in SK-MES-1; type: cell-based; details: 120 h, SK-MES-1, 5 days
Description: as §1, §2

Work on `CC[C@@]1(O)C(=O)OCc2c1cc1n(c2=O)Cc2c-1nc1cc(F)c(C)c3c1c2[C@@H](NC(=O)[C@H](C)O)CC3` [d3] yielded an IC50 [1] of 0.846 nM and an IC50 [2] of 2.04 nM.
